Assay results from patent US20250206722A1, “SMALL MOLECULE INHIBITORS OF TEA DOMAIN FAMILY MEMBERS” (The Scripps Research Institute, priority 2022, published 2025).

Tests used:
NCI-H226 cells = experiment: NCI-H226 proliferation assay (in house); format: cell-based; conditions: Homo sapiens, 120 h, 5 days, Cell TiterGlo, 20-point 1:2 dilution from 20 μM
Method: NCI-H226 Proliferation Assay
NCI-H226 cells were obtained from American Type Culture Collection (ATCC, CRL-5826) and cultured in RPMI 1640 with L-glutamine (Corning, 10-040-CV) supplemented with 10% fetal bovine serum (Gibco, 10438-026) and 1% penicillin-streptomycin (Gibco, 15070063). Cells were trypsinized, resuspended in growth medium, and diluted to a concentrated of 10,000 cells/mL. 500 cells, 50 μL of cell suspension, per well were then plated in a white 384-well plate (Corning) and incubated at 37° C., 5% CO2. After 24 hours incubation, 100 nL of test compounds in DMSO, 20-point 1:2 dilution starting from 20 μM (final concentration) in triplicate, were transferred to each well using an Agilent Bravo instrument outfitted with a pintool head. Cells were incubated at 37° C., 5% CO2 for 5 days followed by the addition of 30 μL of Cell TiterGlo (Promega; diluted 1:6 in water) to each well and luminescence values recorded using an EnVision plate reader. […]

[1] = tested on: transcriptional activity of TEADs; experiment: TEAD reporter assay (MCF7 TEAD-LUC reporter cells); format: cell-based; conditions: Homo sapiens, 24 hours, BrightGlo luminescence
Method: MCF7 TEAD-LUC reporter cells were obtained from BPS Bioscience, Inc. and cultured in DMEM medium (Corning, 10-013-CV) supplemented with 10% fetal bovine serum (Gibco, 10438-026), 1% penicillin-streptomycin (Gibco, 15070063), 1% non-essential amino acids (Gibco, 15070063), and 10 μg/mL insulin (Sigma, 10516). Cells were trypsinized, resuspended in growth medium, and diluted to a concentrated of 100,000 cells/mL. 5,000 cells, 50 μL of cell suspension, per well were then plated in a white 384-well plate (Corning) and incubated at 37° C., 5% CO2. After 24 hours incubation, 100 nL of test compounds in DMSO, 20-point 1:2 dilution starting from 20 μM (final concentration) in triplicate, were transferred to each well using an Agilent Bravo instrument outfitted with a pintool head. Cells were incubated at 37° C., 5% CO2 for 24 hours followed by the addition of 30 μL of BrightGlo (Promega; diluted 1:3 in water) to each well and luminescence values recorded using an EnVision plate reader.
The in vitro assay results of the compounds in the present invention were included in Table 1. The compounds described herein, inhibited the transcriptional activity of TEADs, as assessed by decreased luminance from a TEAD reporter cell line (MCF7 TEAD-LUC) in response to compound treatment.

SMILES | IC50 (NCI-H226 cells) [µM] | IC50 [1] [nM]
C=C(F)C(=O)N1CCN(c2nccnc2Nc2cnc(C(F)(F)F)c(F)c2)CC1 [Example 51, 2-fluoro-1-(4-(3-((5-fluoro-6-(trifluoromethyl)pyridin-3-yl)amino)pyrazin-2-yl)piperazin-1-yl)prop-2-en-1-one] | 0.331 | 6.7
C=C(F)C(=O)N1CC=C(c2nccnc2Nc2ccc(C(F)(F)F)nc2)CC1 [Example 56, 2-fluoro-1-(4-(3-((6-(trifluoromethyl)pyridin-3-yl)amino)pyrazin-2-yl)-3,6-dihydropyridin-1(2H)-yl)prop-2-en-1-one] | 0.145 | 16.5
C=C(F)C(=O)N1CC(Nc2nccnc2Nc2ccc(OC(F)(F)F)nc2)C1 [Example 64, 2-fluoro-1-(3-((3-((6-(trifluoromethoxy)pyridin-3-yl)amino)pyrazin-2-yl)amino)azetidin-1-yl)prop-2-en-1-one] | 3.12 | 1680
C=C(F)C(=O)N1CC(Oc2nccnc2Nc2ccc(C(F)(F)F)nc2)C1 [Example 65, 2-fluoro-1-(3-((3-((6-(trifluoromethyl)pyridin-3-yl)amino)pyrazin-2-yl)oxy)azetidin-1-yl)prop-2-en-1-one] | 1.85 | 18.6
C=C(F)C(=O)N1CCN(c2nccnc2NC2C3CC2C3C(F)(F)F)CC1 (stereo not shown) [Example 68, 2-fluoro-1-(4-(3-((4-(trifluoromethyl)bicyclo[1.1.1]pentan-2-yl)amino)pyrazin-2-yl)piperazin-1-yl)prop-2-en-1-one] | 0.708 | 11
C=CC(=O)N1CCN(c2nccnc2Oc2ccc(OC)cc2)CC1 [Example 70, 1-(4-(3-(4-methoxyphenoxy)pyrazin-2-yl)piperazin-1-yl)prop-2-en-1-one] | 0.028 | 3
C=CC(=O)N1CCC(c2nccnc2Oc2ccc(C(F)(F)F)cn2)CC1 [Example 75, 1-(4-(3-((5-(trifluoromethyl)pyridin-2-yl)oxy)pyrazin-2-yl)piperidin-1-yl)prop-2-en-1-one] | 0.112 | 2.7
C=CC(=O)N1CC(Nc2nccnc2N2CC(c3ccc(F)cc3)C2)C1 [Example 108, 1-(3-((3-(3-(4-fluorophenyl)azetidin-1-yl)pyrazin-2-yl)amino)azetidin-1-yl)prop-2-en-1-one] | > 10 | 
C=C(F)C(=O)N1CC(Nc2nccnc2N2CC(c3ccc(F)cc3)C2)C1 [Example 109, 2-fluoro-1-(3-((3-(3-(4-fluorophenyl)azetidin-1-yl)pyrazin-2-yl)amino)azetidin-1-yl)prop-2-en-1-one] | > 10 | 
C=CC(=O)N1CCC(c2ncc(C)nc2Oc2ccc(C(F)(F)F)nc2)CC1 [Example 116, 1-(4-(5-methyl-3-((6-(trifluoromethyl)pyridin-3-yl)oxy)pyrazin-2-yl)piperidin-1-yl)prop-2-en-1-one] | 0.022 | 
C=C(F)C(=O)N1CCC(c2ncc(C)nc2Oc2ccc(C(F)(F)F)nc2)CC1 [Example 117, 2-fluoro-1-(4-(5-methyl-3-((6-(trifluoromethyl)pyridin-3-yl)oxy)pyrazin-2-yl)piperidin-1-yl)prop-2-en-1-one] | 0.158 | 
C=CC(=O)N1CCC(c2nccn(-c3ncc(C(F)(F)F)cn3)c2=O)CC1 [Example 118, 3-(1-acryloylpiperidin-4-yl)-1-(5-(trifluoromethyl)pyrimidin-2-yl)pyrazin-2(1H)-one] | > 10 | 
C=C(F)C(=O)N1CCC(c2cncnc2Oc2ccc(C(F)(F)F)nc2)CC1 [Example 127, 2-fluoro-1-(4-(4-((6-(trifluoromethyl)pyridin-3-yl)oxy)pyrimidin-5-yl)piperidin-1-yl)prop-2-en-1-one] | 66.8 | 

Second part, the compound after the results:

IC50 (NCI-H226 cells) [µM] | IC50 [1] [nM] | SMILES
23.9 | 8 | C=CC(=O)N[C@H]1C[C@H](Nc2nccnc2Nc2ccc(C(F)(F)F)cc2)C1 [Example 4, N-((1r,3r)-3-((3-((4-(trifluoromethyl)phenyl)amino)pyrazin-2-yl)amino)cyclobutyl) acrylamide]
3.3 | > 20000 | C=CC(=O)N1CCN(c2nccnc2Nc2ccc(C(F)(F)F)cc2)C[C@@H]1CCO [Example 17, (S)-1-(2-(2-hydroxyethyl)-4-(3-((4-(trifluoromethyl)phenyl)amino)pyrazin-2-yl)piperazin-1-yl)prop-2-en-1-one]
0.701 | 134 | C=CC(=O)N1CCN(c2nccnc2Nc2ccc(C(F)(F)F)cc2)C[C@@H]1C(N)=O [Example 18, (R)-1-acryloyl-4-(3-((4-(trifluoromethyl)phenyl)amino)pyrazin-2-yl)piperazine-2-carboxamide]
> 20 | > 20000 | C=CC(=O)N1CCN(c2nccnc2Nc2ccc(C(F)(F)F)cc2)C[C@H]1C(N)=O [Example 19, (S)-1-acryloyl-4-(3-((4-(trifluoromethyl)phenyl)amino)pyrazin-2-yl)piperazine-2-carboxamide]
2.73 | > 20000 | C=CC(=O)N1CCN(c2nccnc2Nc2ccc(C(F)(F)F)cc2)CC1CC(N)=O (stereo not shown) [Example 20, 2-(1-acryloyl-4-(3-((4-(trifluoromethyl)phenyl)amino)pyrazin-2-yl)piperazin-2-yl)acetamide]
5.04 | 5 | C=CC(=O)N1CCN(c2nccnc2Nc2ccc(OCF)cc2)CC1 [Example 36, 1-(4-(3-((4-(fluoromethoxy)phenyl)amino)pyrazin-2-yl)piperazin-1-yl)prop-2-en-1-one]
> 20 | 4 | C=CC(=O)N1CCN(c2nccnc2Nc2ccc(C(F)F)cn2)CC1 [Example 40, 1-(4-(3-((5-(difluoromethyl)pyridin-2-yl)amino)pyrazin-2-yl)piperazin-1-yl)prop-2-en-1-one]
0.166 | 17 | C=CC(=O)N1CCN(c2nccnc2N(C)c2ccc(C(F)(F)F)cn2)CC1 [Example 42, 1-(4-(3-(methyl(5-(trifluoromethyl)pyridin-2-yl)amino)pyrazin-2-yl)piperazin-1-yl)prop-2-en-1-one]
0.043 | 4 | C=CC(=O)N1CCN(c2nccnc2Nc2ccc(C(F)F)nc2)CC1 [Example 47, 1-(4-(3-((6-(difluoromethyl)pyridin-3-yl)amino)pyrazin-2-yl)piperazin-1-yl)prop-2-en-1-one]
0.076 | 3.6 | C=CC(=O)N1CCN(c2nccnc2Nc2ccc(C(F)(F)F)nc2)C[C@@H]1C [Example 53, (S)-1-(2-methyl-4-(3-((6-(trifluoromethyl)pyridin-3-yl)amino)pyrazin-2-yl)piperazin-1-yl)prop-2-en-1-one]
0.192 | 9 | C=CC(=O)N1CCN(c2nccnc2Nc2ccc(C(F)(F)F)nc2)C[C@H]1C [Example 54, (R)-1-(2-methyl-4-(3-((6-(trifluoromethyl)pyridin-3-yl)amino)pyrazin-2-yl)piperazin-1-yl)prop-2-en-1-one]
0.257 | 5 | C=CC(=O)N1CCC(c2nccnc2Nc2ccc(C(F)(F)F)nc2)CC1 [Example 61, 1-(4-(3-((6-(trifluoromethyl)pyridin-3-yl)amino)pyrazin-2-yl)piperidin-1-yl)prop-2-en-1-one]
8.67 | 10.7 | C=CC(=O)N1CC(Nc2nccnc2Nc2ccc(C(F)(F)F)nc2)C1 [Example 62, 1-(3-((3-((6-(trifluoromethyl)pyridin-3-yl)amino)pyrazin-2-yl)amino)azetidin-1-yl)prop-2-en-1-one]
